Literature values in patent publication US20110257197A1 (Nanjing Cavendish Bio-Engineering Technology Co., Ltd., priority 2008, published 2011).
Converted amounts (≈) assume the structure as drawn. “Also recorded” adds a separate entry of the source. Like-named read-outs stand apart in the source and are kept apart here.

Assays:
mice [1] = system: mice
rat = details: i.v.
[2] = in vivo
[3] = system: Scedosporium and Fusarium species; details: in vitro
[4] = system: Candida species (including strains of Candida krusei, Candida glabrata, and Candida albicans resistant to fluconazole); details: in vitro
Aspergillus fungi = details: in vitro
mice [5] = details: i.v.
mice [6] = system: mice; remark: listed apart in the source
guinea pig = details: indicates possibility of causing allergy
[7] = in vivo; remark: listed apart in the source
red blood cell = details: i.v.
rodent = details: two-year studies
[8] = listed as sulfobutyl ether β-cyclodextrin sodium

CC(O)CO (stereo not shown) [propylene glycol]
NOAEL of maternal toxicity in teratogenic sensitive period (mice [1]): 1600 mg/kg/day. Ethanol could cause | NOAEL of teratogenic toxicity (mice [1]): 1600 mg/kg/day. Ethanol could cause | LD50 (rat): i.v. LD50 ≧ 5000 mg/kg. | NOAEL of maternal toxicity in teratogenic sensitive period (rats): 1600 mg/kg/day. Ethanol could cause | NOAEL of teratogenic toxicity (rats): 1600 mg/kg/day. Ethanol could cause | long term fertility study [2]: studies showed that no abnormity had

C[C@@H](c1ncncc1F)[C@](O)(Cn1cncn1)c1ccc(F)cc1F [voriconazole]
activity against other pathogenic fungi such as Scedosporium and Fusarium species [3]: in vitro activity | activity against Candida species [4]: active | activity against all tested Aspergillus fungi (Aspergillus fungi): active | solubility in water (pH 3): 200 µg/mL (≈ 573 µM) | solubility in water (pH 7): almost insoluble

CCO [ethanol]
LD50 (mice [5]): 1440 mg/kg | LD50 (rat): ethanol, in rat, i.v. LD50 = 1973 mg/kg;

sulfobutyl ether β-cyclodextrin sodium [SBECD]
dose at which the weight of mice was significantly decreased (mice [6]): 18 mg/kg/day or higher | guinea pig maximization test (GPMT) result (guinea pig): positive | findings on repeated administration [7]: vacuale formation in the urinary-tract epithelium; also recorded: activated macrophages in liver and lung | concentration of significant heamolysis (red blood cell): at 0.04 mg/ml. | concentration at which mild hemolysis occurs (red blood cell; [8]): 20000 ng/mL | concentration of significant heamolysis (red blood cell; [8]): 40000 ng/mL | carcinogenicity (pancreatic carcinoma) (rodent): carcinogenic | LD50 (mice [5]): LD50 > 2000 mg/kg | LD50 (rat): LD50 > 2000 mg/kg
